Test system: fibrofatty residua (FFR) from an involuted infantile hemangioma
Type: in vivo, human
Text: A child was referred for treatment of an involuted IH. They were concerned about the visual appearance and the feeling of fullness caused by the significant convexity of the tumor. […] Initial measurement was 0.8 cm high and 7.5 cm wide. Management options including surgical excision and laser treatments were discussed. The patient's parent was apprehensive regarding surgery due to the inherent risks of scarring, nerve damage, infection, bleeding, and tissue necrosis.
As an alternative to these options, the present inventors considered administering DCA to the patient to reduce the protuberance of the mass. The associated risks of DCA administration, as well as off-label use, and lack of pediatric approval were discussed with the patient. Two series of injections were planned.
The site was anesthetized with a topical 40% lidocaine ointment. Following prepping with alcohol, an injection grid modified to overlay the affected tissue was applied. Subsequently, 0.2 mL of DCA concentrated to 2 mg/cm^2 was injected at 1 cm intervals using a total of 4.4 mL, followed by the application of ice packs.
As planned, injections were repeated 3 months later, using an additional 4.2 mL. […] The FFR measured 0.2 cm high and 6.4 cm wide (FIG. 2A-2B). […] Some of the superifical vessels appeared to resolve completely (clinically go away/not visible after treatment) post treatment.

C[C@H](CCC(=O)O)[C@H]1CC[C@H]2[C@@H]3CC[C@@H]4C[C@H](O)CC[C@]4(C)[C@H]3C[C@H](O)[C@]12C [DCA, 3α,12α-dihydroxy-5β-cholan-24-oic acid]
improvement in visual appearance and degree of protrusion (after two series of intralesional DCA, two months after second injection): significant improvement
duration of moderate post-injection pain, erythema, bruising, and swelling (female, human, in vivo): 24 to 48 h
improvement after the first treatment (first series, 0.2 mL injections at 1 cm intervals, total 4.4 mL): marginal improvement
skin tension (in vivo): either maintained or enhanced
tolerability of the procedure (in vivo): tolerated the procedure well
visible superficial vessels and telangiectasias in the FFR (post treatment, some of the vessels, some appeared to resolve completely): decreased in size, caliber, and/or lightened in color
FFR height, final measurement post-treatment (right flank, after two series of intralesional DCA (4.4 mL, then 4.2 mL 3 months later), two months after second injection, baseline 0.8 cm): 0.2 cm
FFR width, final measurement post-treatment (right flank, after two series of intralesional DCA (4.4 mL, then 4.2 mL 3 months later), two months after second injection, baseline 7.5 cm): 6.4 cm
